Tests used:
wildtype Kras / hSOS1 = molecular target: T1, wildtype Kras / hSOS1 (Homo sapiens, UniProt P01116); assay: HTRF assay, wildtype Kras / SOS1 interaction; format: binding; conditions: compound nos. 401-703; read-out: IC50 against wildtype Kras
T1 construct: made in house; host or cells: E. coli BL21 (DE3)
Method in brief: (§1)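 Compounds tested in duplicate from 10 μM down to 0.01 μM, incubated about 10 min or longer with GST-K-Ras/anti-GST-Eu and His-hSOS1/anti-6His-XL665 in ~5 mM HEPES pH 7.4 buffer with ~150 mM NaCl, DTT, BSA and Igepal. IC50 derived from 665/620 nm emission ratio.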

[1] = molecular target: GST-tagged K-Ras mutant / His-tagged hSOS1 (Homo sapiens, UniProt P01116); assay: HTRF assay, K-Ras mutant / SOS1 interaction; format: binding; conditions: compound nos. 401-703; read-out: IC50 against mutant Kras
GST-tagged K-Ras mutant / His-tagged hSOS1, sequence (P01116 whole entry G12D, form open): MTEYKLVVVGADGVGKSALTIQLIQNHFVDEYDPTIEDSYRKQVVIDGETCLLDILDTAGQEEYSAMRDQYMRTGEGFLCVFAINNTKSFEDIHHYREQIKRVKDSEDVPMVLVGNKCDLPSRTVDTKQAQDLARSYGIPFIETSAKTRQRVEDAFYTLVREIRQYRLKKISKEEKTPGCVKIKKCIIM
Method in brief: as §1

T1 sequence (P01116 1-188 isoform P01116-2): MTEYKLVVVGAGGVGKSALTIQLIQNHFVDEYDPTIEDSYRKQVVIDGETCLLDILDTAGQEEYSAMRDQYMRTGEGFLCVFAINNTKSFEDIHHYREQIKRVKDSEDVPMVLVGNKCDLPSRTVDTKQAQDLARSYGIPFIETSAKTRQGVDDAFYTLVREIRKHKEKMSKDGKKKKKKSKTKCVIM

| IC50 (wildtype Kras / hSOS1) | IC50 [1] | SMILES |
| --- | --- | --- |
| > 500 nM | > 500 nM | Nc1nc2c(-c3c(Cl)cc4c(N5C[C@H]6CC[C@@H](C5)C6(F)F)nc(OC[C@@]56CCCN5C[C@H](F)C6)nc4c3F)ccc(F)c2s1 [Compound 655, 4-(6-chloro-4-((1R,5S)-8,8-difluoro-3-azabicyclo[3.2.1]-octan-3-yl)-8-fluoro-2-(((2R,7aS)-2-fluorotetra-hydro-1H-pyrrolizin-7a(5H)-yl)methoxy)quinazolin-7-yl)-7-fluorobenzo[d]thiazol-2-amine] |
| > 500 nM | < 500 nM | CNCCN1[C@@H]2CC[C@H]1CN(c1nc(OCC34CCCN3CCC4)nc3c(F)c(-c4ccc(F)c5sc(N)nc45)c(Cl)cc13)C2 [Compound 656, 4-(6-chloro-8-fluoro-4-((1R,5S)-8-(2-(methyl-amino)-ethyl)-3,8-diaza-bicyclo[3.2.1]octan-3-yl)-2-((tetrahydro-1H-pyrrol-izin-7a(5H)-yl)methoxy)-quinazolin-7-yl)-7-fluoro-benzo[d]thiazol-2-amine] |
| > 500 nM | > 500 nM | Fc1c(-c2cccc3cn[nH]c23)ccc2c(N3CC4CCC(C3)N4)nc(OC[C@@]34CCCN3C[C@H](F)C4)nc12 [Compound 657, 4-(3,8-diazabicyclo[3.2.1]-octan-3-yl)-8-fluoro-2-(((2R,7aS)-2-fluorotetra-hydro-1H-pyrrolizin-7a(5H)-yl)methoxy)-7-(1H-indazol-7-yl)quinazoline] |

Continued, molecule first:

| SMILES | IC50 (wildtype Kras / hSOS1) | IC50 [1] |
| --- | --- | --- |
| Nc1nc2c(-c3c(Cl)cc4c(N5CCN(Cc6cncnc6)CC(F)(F)C5)nc(OC[C@@]56CCCN5C[C@H](F)C6)nc4c3F)ccc(F)c2s1 [Compound 649, 4-(6-chloro-4-(6,6-difluoro-4-(pyrimidin-5-ylmethyl)-1,4-diazepan-1-yl)-8-fluoro-2-(((2R,7aS)-2-fluorotetra-hydro-1H-pyrrolizin-7a(5H)-yl)methoxy)quinazolin-7-yl)-7-fluorobenzo[d]thiazol-2-amine] | > 500 nM | < 500 nM |
| Oc1ccc2ccc(-c3c(Cl)cc4c(N5CC6CCC(C5)N6)nc(OCC56CCCN5CCC6)nc4c3F)cc2c1 [Compound 650, 7-(4-(3,8-diazabicyclo-[3.2.1]octan-3-yl)-6-chloro-8-fluoro-2-((tetrahydro-1H-pyrrolizin-7a(5H)-yl)meth-oxy)quinazolin-7-yl)naph-thalen-2-ol] | > 500 nM | > 500 nM |
| CN1CCC[C@H]1COc1nc(N2CCCC(n3ccnc3)CC2)c2cc(Cl)c(-c3cccc4sc(N)nc34)c(F)c2n1 (stereo partly drawn) [Compound 651, 4-(4-(4-(1H-imidazol-1-yl)-azepan-1-yl)-6-chloro-8-fluoro-2-(((S)-1-methyl-pyrrolidin-2-yl)methoxy)-quinazolin-7-yl)benzo[d]-thiazol-2-amine] | > 500 nM | < 500 nM |
| Nc1cccc(-c2ccc(O)cc2-c2c(Cl)cc3c(N4CC5CCC(C4)N5)nc(OCC45CCCN4CCC5)nc3c2F)c1 [Compound 652, 2-(4-(3,8-diazabicyclo-[3.2.1]octan-3-yl)-6-chloro-8-fluoro-2-((tetrahydro-1H-pyrrolizin-7a(5H)-yl)meth-oxy)quinazolin-7-yl)-3′-amino-[1,1′-biphenyl]-4-ol] | > 500 nM | > 500 nM |
| Nc1nc2c(-c3c(Cl)cc4c(N5CC6CCC(C5)N6)nc(OCC5(CN6CCCC6)CC5)nc4c3F)cccc2o1 [Compound 653, 4-(4-(3,8-diazabicyclo-[3.2.1]octan-3-yl)-6-chloro-8-fluoro-2-((1-(pyrrolidin-1-ylmethyl)cyclopropyl)meth-oxy)quinazolin-7-yl)benzo-[d]oxazol-2-amine] | > 500 nM | < 500 nM |
| Fc1c(-c2cccc3[nH]ncc23)ccc2c(N3CC4CCC(C3)N4)nc(OC[C@@]34CCCN3C[C@H](F)C4)nc12 [Compound 654, 4-(3,8-diazabicyclo[3.2.1]-octan-3-yl)-8-fluoro-2-(((2R,7aS)-2-fluorotetra-hydro-1H-pyrrolizin-7a(5H)-yl)methoxy)-7-(1H-indazol-4-yl)quinazoline] | > 500 nM | > 500 nM |
